Measured values: BigSolDB 2.1

COC(=O)[C@@H](N)CS.Cl
Details	solubility (mole fraction)
in 1,4-dioxane, 288.15 K	0.00083
in 1,4-dioxane, 293.15 K	0.001
in 1,4-dioxane, 298.15 K	0.0013
in 1,4-dioxane, 303.15 K	0.00147
in 1,4-dioxane, 308.15 K	0.00184
in 1,4-dioxane, 313.15 K	0.00211
in 1,4-dioxane, 318.15 K	0.00232
in 1,4-dioxane, 323.15 K	0.00269
in 1,4-dioxane, 328.15 K	0.00305
in 1,4-dioxane, 333.15 K	0.00349
in 2-butanone, 283.15 K	0.00065
in 2-butanone, 288.15 K	0.00084
in 2-butanone, 293.15 K	0.00108
in 2-butanone, 298.15 K	0.00132
in 2-butanone, 303.15 K	0.00164
in 2-butanone, 308.15 K	0.00192
in 2-butanone, 313.15 K	0.00225
in 2-butanone, 318.15 K	0.0025
in 2-butanone, 323.15 K	0.00333
in 2-butanone, 328.15 K	0.00418
in 2-butanone, 333.15 K	0.00573
in acetone, 283.15 K	0.00062
in acetone, 288.15 K	0.00073
in acetone, 293.15 K	0.00082
in acetone, 298.15 K	0.00087
in acetone, 303.15 K	0.00093
in acetone, 308.15 K	0.00101
in acetone, 313.15 K	0.00111
in acetone, 318.15 K	0.00124
in acetone, 323.15 K	0.00152
in acetonitrile, 283.15 K	0.00021
in acetonitrile, 288.15 K	0.00029
in acetonitrile, 293.15 K	0.00032
in acetonitrile, 298.15 K	0.0004
in acetonitrile, 303.15 K	0.00043
in acetonitrile, 308.15 K	0.0005
in acetonitrile, 313.15 K	0.00062
in acetonitrile, 318.15 K	0.00091
in acetonitrile, 323.15 K	0.00098
in acetonitrile, 328.15 K	0.00104
in acetonitrile, 333.15 K	0.00123
in dichloromethane, 283.15 K	5e-05
in dichloromethane, 288.15 K	7e-05
in dichloromethane, 293.15 K	9e-05
in dichloromethane, 298.15 K	0.00011
in dichloromethane, 303.15 K	0.00013
in ethanol, 283.15 K	0.0232
in ethanol, 288.15 K	0.0257
in ethanol, 293.15 K	0.029
in ethanol, 298.15 K	0.0337
in ethanol, 303.15 K	0.0428
in ethanol, 308.15 K	0.0471
in ethanol, 313.15 K	0.0536
in ethanol, 318.15 K	0.0622
in ethanol, 323.15 K	0.0722
in ethanol, 328.15 K	0.0864
in ethanol, 333.15 K	0.1
in ethyl acetate, 283.15 K	7e-05
in ethyl acetate, 288.15 K	0.0001
in ethyl acetate, 293.15 K	0.00012
in ethyl acetate, 298.15 K	0.00015
in ethyl acetate, 303.15 K	0.00018
in ethyl acetate, 308.15 K	0.00023
in ethyl acetate, 313.15 K	0.00027
in ethyl acetate, 318.15 K	0.0003
in ethyl acetate, 323.15 K	0.00032
in ethyl acetate, 328.15 K	0.00042
in ethyl acetate, 333.15 K	0.00052
in isobutanol, 283.15 K	0.00393
in isobutanol, 288.15 K	0.00437
in isobutanol, 293.15 K	0.00478
in isobutanol, 298.15 K	0.00541
in isobutanol, 303.15 K	0.00634
in isobutanol, 308.15 K	0.00718
in isobutanol, 313.15 K	0.0086
in isobutanol, 318.15 K	0.00972
in isobutanol, 323.15 K	0.0125
in isobutanol, 328.15 K	0.0162
in isobutanol, 333.15 K	0.0196
in isopropanol, 283.15 K	0.0036
in isopropanol, 288.15 K	0.00389
in isopropanol, 293.15 K	0.00422
in isopropanol, 298.15 K	0.00512
in isopropanol, 303.15 K	0.00585
in isopropanol, 308.15 K	0.00648
in isopropanol, 313.15 K	0.00806
in isopropanol, 318.15 K	0.0097
in isopropanol, 323.15 K	0.0127
in isopropanol, 328.15 K	0.0153
in isopropanol, 333.15 K	0.0188
in methanol, 283.15 K	0.0906
in methanol, 288.15 K	0.0944
in methanol, 293.15 K	0.106
in methanol, 298.15 K	0.114
in methanol, 303.15 K	0.127
in methanol, 308.15 K	0.139
in methanol, 313.15 K	0.155
in methanol, 318.15 K	0.168
in methanol, 323.15 K	0.187
in methanol, 328.15 K	0.212
in methanol, 333.15 K	0.257
in n-butanol, 283.15 K	0.00537
in n-butanol, 288.15 K	0.00599
in n-butanol, 293.15 K	0.0067
in n-butanol, 298.15 K	0.00847
in n-butanol, 303.15 K	0.0106
in n-butanol, 308.15 K	0.0124
in n-butanol, 313.15 K	0.0136
in n-butanol, 318.15 K	0.0164
in n-butanol, 323.15 K	0.0198
in n-butanol, 328.15 K	0.0238
in n-butanol, 333.15 K	0.0306
in n-pentanol, 283.15 K	0.0039
in n-pentanol, 288.15 K	0.00462
in n-pentanol, 293.15 K	0.0054
in n-pentanol, 298.15 K	0.00662
in n-pentanol, 303.15 K	0.00824
in n-pentanol, 308.15 K	0.00924
in n-pentanol, 313.15 K	0.0111
in n-pentanol, 318.15 K	0.0125
in n-pentanol, 323.15 K	0.0149
in n-pentanol, 328.15 K	0.0187
in n-pentanol, 333.15 K	0.0236
in n-propanol, 283.15 K	0.00805
in n-propanol, 288.15 K	0.00883
in n-propanol, 293.15 K	0.0106
in n-propanol, 298.15 K	0.0124
in n-propanol, 303.15 K	0.0145
in n-propanol, 308.15 K	0.0161
in n-propanol, 313.15 K	0.0193
in n-propanol, 318.15 K	0.0219
in n-propanol, 323.15 K	0.0272
in n-propanol, 328.15 K	0.0306
in n-propanol, 333.15 K	0.0384
in sec-butanol, 283.15 K	0.00252
in sec-butanol, 288.15 K	0.00265
in sec-butanol, 293.15 K	0.00283
in sec-butanol, 298.15 K	0.00372
in sec-butanol, 303.15 K	0.00416
in sec-butanol, 308.15 K	0.00455
in sec-butanol, 313.15 K	0.00513
in sec-butanol, 318.15 K	0.0063
in sec-butanol, 323.15 K	0.0082
in sec-butanol, 328.15 K	0.00958
in sec-butanol, 333.15 K	0.0112
